Laboratory results published in PubChem BioAssay AID248 (DTP/NCI, 2004).
Values joined by “and” are separate entries in the source; they are usually repeats but may differ in a detail not shown here. Equal values may be shown once. Toxic doses and inconclusive results are not listed. Cut-off read from the data, not from the text of the source: active = T/C of 150% or more; inactive = T/C below 125%.

Test system: L1210 leukemia ip in BDF1 mice, survival T/C
Assay: NCI In Vivo Anticancer Drug Screen. Data for tumor model L1210 Leukemia (intraperitoneal) in B6D2F1 (BDF1) mice
Conditions: endpoint: mean survival time, higher = longer survival
In short: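 Transplantable tumor model; survival measured in treated vs vehicle control mice. Value = treated/control.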

[1] = dose: 100.0 mg/kg/injection, schedule: Q01DX001 (ip), vehicle: saline with Tween-80
[2] = dose: 100.0 mg/kg/injection, schedule: Q01DX009 (ip), vehicle: saline with Tween-80
[3] = dose: 200.0 mg/kg/injection, schedule: Q01DX001 (ip), vehicle: saline with Tween-80
[4] = dose: 200.0 mg/kg/injection, schedule: Q01DX009 (ip), vehicle: saline with Tween-80
[5] = dose: 400.0 mg/kg/injection, schedule: Q01DX001 (ip), vehicle: saline with Tween-80
[6] = dose: 400.0 mg/kg/injection, schedule: Q01DX009 (ip), vehicle: saline with Tween-80
[7] = dose: 50.0 mg/kg/injection, schedule: Q01DX001 (ip), vehicle: saline
[8] = dose: 100.0 mg/kg/injection, schedule: Q01DX001 (ip), vehicle: saline
[9] = dose: 200.0 mg/kg/injection, schedule: Q01DX001 (ip), vehicle: saline
[10] = dose: 400.0 mg/kg/injection, schedule: Q01DX001 (ip), vehicle: saline
[11] = dose: 100.0 mg/kg/injection, schedule: Q04DX003 (ip), vehicle: saline with Tween-80
[12] = dose: 200.0 mg/kg/injection, schedule: Q04DX003 (ip), vehicle: saline with Tween-80
[13] = dose: 400.0 mg/kg/injection, schedule: Q04DX003 (ip), vehicle: saline with Tween-80
[14] = dose: 100.0 mg/kg/injection, schedule: Q04DX003 (ip), vehicle: saline
[15] = dose: 200.0 mg/kg/injection, schedule: Q04DX003 (ip), vehicle: saline
[16] = dose: 400.0 mg/kg/injection, schedule: Q04DX003 (ip), vehicle: saline
[17] = dose: 100.0 mg/kg/injection, schedule: Q01DX009 (ip), vehicle: Klucel (hydroxypropylcellulose) (HPC)
[18] = dose: 100.0 mg/kg/injection, schedule: Q04DX003 (ip), vehicle: Klucel (hydroxypropylcellulose) (HPC)
[19] = dose: 200.0 mg/kg/injection, schedule: Q01DX009 (ip), vehicle: Klucel (hydroxypropylcellulose) (HPC)
[20] = dose: 200.0 mg/kg/injection, schedule: Q04DX003 (ip), vehicle: Klucel (hydroxypropylcellulose) (HPC)
[21] = dose: 400.0 mg/kg/injection, schedule: Q01DX009 (ip), vehicle: Klucel (hydroxypropylcellulose) (HPC)
[22] = dose: 400.0 mg/kg/injection, schedule: Q04DX003 (ip), vehicle: Klucel (hydroxypropylcellulose) (HPC)

Measured: T/C

Cc1cccc(OC(=O)Nc2ccc(C(=O)O)c(O)c2)c1
inactive: dose: 50.0 mg/kg/injection, schedule: Q04DX003 (ip), vehicle: gum acacia 96 % of control and 98 % of control | dose: 100.0 mg/kg/injection, schedule: Q01DX001 (ip), vehicle: gum acacia 104 % of control and 105 % of control | dose: 100.0 mg/kg/injection, schedule: Q01DX009 (ip), vehicle: gum acacia 97 % of control and 88 % of control | dose: 100.0 mg/kg/injection, schedule: Q04DX002 (ip), vehicle: gum acacia 94 % of control and 88 % of control | dose: 100.0 mg/kg/injection, schedule: Q04DX003 (ip), vehicle: gum acacia 101 % of control and 88 % of control | dose: 200.0 mg/kg/injection, schedule: Q01DX001 (ip), vehicle: gum acacia 100 % of control and 107 % of control | dose: 200.0 mg/kg/injection, schedule: Q01DX009 (ip), vehicle: gum acacia 98 % of control and 117 % of control | dose: 200.0 mg/kg/injection, schedule: Q04DX002 (ip), vehicle: gum acacia 95 % of control and 110 % of control | dose: 200.0 mg/kg/injection, schedule: Q04DX003 (ip), vehicle: gum acacia 98 % of control and 101 % of control

CCOC(=O)C(NC=O)(C(=O)OCC)C(C)c1c[nH]c2ccccc12 (stereo not given)
inactive: [1] 93 % of control | [2] 102 % of control | [3] 94 % of control | [4] 98 % of control | [5] 100 % of control | [6] 94 % of control

N=C(CC(=O)Nc1ccccc1)c1ccccc1
inactive: [7] 101 % of control | [8] 96 % of control | [9] 102 % of control | [10] 101 % of control

CCCCCCCCCCCCN1CCCN(CCCCCCCCCCCC)CC1
inactive: [1] 100 % of control | dose: 100.0 mg/kg/injection, schedule: Q04DX002 (ip), vehicle: saline with Tween-80 97 % of control and 106 % of control | [11] 94 % of control and 90 % of control | [3] 98 % of control | dose: 200.0 mg/kg/injection, schedule: Q04DX002 (ip), vehicle: saline with Tween-80 97 % of control and 106 % of control | [12] 103 % of control and 87 % of control | [5] 107 % of control | dose: 400.0 mg/kg/injection, schedule: Q04DX002 (ip), vehicle: saline with Tween-80 101 % of control and 92 % of control | [13] 90 % of control

CC(=O)Nc1ccc(N=C/C=C/c2ccccc2)cc1
inactive: [8] 93 % of control | [9] 94 % of control | [10] 98 % of control

CCC([N+](=O)[O-])S(=O)(=O)c1ccc(C)cc1 (stereo not given)
inactive: [8] 98 % of control | dose: 100.0 mg/kg/injection, schedule: Q01DX009 (ip), vehicle: saline 98 % of control | [14] 102 % of control | [9] 95 % of control | dose: 200.0 mg/kg/injection, schedule: Q01DX009 (ip), vehicle: saline 94 % of control and 95 % of control | [15] 100 % of control | [10] 93 % of control | dose: 400.0 mg/kg/injection, schedule: Q01DX009 (ip), vehicle: saline 93 % of control and 103 % of control | [16] 94 % of control

CC1(C)NC(=O)N(CCO)C1=O
inactive: dose: 50.0 mg/kg/injection, schedule: Q04DX003 (ip), vehicle: saline 111 % of control | [14] 111 % of control | [15] 100 % of control | [16] 101 % of control

Cc1ccc(NC(=O)/C=C\C(=O)O)cc1
inactive: [17] 103 % of control | [18] 97 % of control | [19] 108 % of control | [20] 96 % of control | [21] 91 % of control | [22] 91 % of control

CN1C(=O)C2C3C=CC(C3)C2C1=O (stereo not given)
inactive: dose: 100.0 mg/kg/injection, schedule: Q01DX001 (ip), vehicle: Klucel (hydroxypropylcellulose) (HPC) 97 % of control | [17] 101 % of control | dose: 200.0 mg/kg/injection, schedule: Q01DX001 (ip), vehicle: Klucel (hydroxypropylcellulose) (HPC) 101 % of control | [19] 100 % of control | dose: 400.0 mg/kg/injection, schedule: Q01DX001 (ip), vehicle: Klucel (hydroxypropylcellulose) (HPC) 106 % of control | [21] 96 % of control

Cc1ccc(Cl)cc1NC(=O)Nc1ccccc1
inactive: dose: 0.75 mg/kg/injection, schedule: Q01DX009 (ip), vehicle: Klucel (hydroxypropylcellulose) (HPC) 92 % of control | dose: 1.5 mg/kg/injection, schedule: Q01DX009 (ip), vehicle: Klucel (hydroxypropylcellulose) (HPC) 90 % of control | dose: 3.0 mg/kg/injection, schedule: Q01DX009 (ip), vehicle: Klucel (hydroxypropylcellulose) (HPC) 94 % of control and 90 % of control | [18] 90 % of control | [20] 90 % of control | [22] 87 % of control

O=c1[nH]cccc1CC(O)(c1ccccc1)c1ccccc1
inactive: [8] 101 % of control | [9] 103 % of control | [10] 100 % of control

CCCCCCCCCCCCCCCCS(=O)(=O)Nc1cc(C(=O)NN)cc(C(=O)NN)c1
inactive: [11] 90 % of control | [12] 86 % of control | [13] 88 % of control

O=c1[nH]cc(Cl)cc1Cl
inactive: [17] 94 % of control | [19] 94 % of control | [21] 108 % of control

CC1=COC2(CC1)OC1CC3C4CCC5CC(O)CCC5(C)C4CCC3(C)C1C2C (stereo not given)
inactive: [1] 96 % of control | [3] 102 % of control | [5] 95 % of control

COc1ccc(C2CCc3cc4c(cc3C2=O)OCO4)cc1OC (stereo not given)
inactive: [2] 98 % of control | [4] 98 % of control | [6] 98 % of control

ClCCCSCCCCl
inactive: [7] 103 % of control | [8] 112 % of control | [9] 124 % of control | [10] 95 % of control

Cc1cc(Cl)c(Cl)cc1NC(=O)c1ccccc1F
inactive: dose: 100.0 mg/kg/injection, schedule: Q01DX001 (ip), vehicle: other 94 % of control | dose: 100.0 mg/kg/injection, schedule: Q01DX009 (ip), vehicle: other 107 % of control and 92 % of control | dose: 100.0 mg/kg/injection, schedule: Q04DX002 (ip), vehicle: other 98 % of control and 102 % of control | dose: 100.0 mg/kg/injection, schedule: Q04DX003 (ip), vehicle: other 98 % of control | dose: 200.0 mg/kg/injection, schedule: Q01DX001 (ip), vehicle: other 92 % of control | dose: 200.0 mg/kg/injection, schedule: Q01DX009 (ip), vehicle: other 90 % of control and 92 % of control | dose: 200.0 mg/kg/injection, schedule: Q04DX002 (ip), vehicle: other 105 % of control and 91 % of control | dose: 200.0 mg/kg/injection, schedule: Q04DX003 (ip), vehicle: other 100 % of control | dose: 400.0 mg/kg/injection, schedule: Q01DX001 (ip), vehicle: other 91 % of control | dose: 400.0 mg/kg/injection, schedule: Q01DX009 (ip), vehicle: other 90 % of control and 92 % of control | dose: 400.0 mg/kg/injection, schedule: Q04DX002 (ip), vehicle: other 100 % of control and 102 % of control | dose: 400.0 mg/kg/injection, schedule: Q04DX003 (ip), vehicle: other 96 % of control

O=C(CCCC(=O)OCC(F)(F)C(F)(F)C(F)(F)C(F)F)OCC(F)(F)C(F)(F)C(F)(F)C(F)F
inactive: dose: 50.0 mg/kg/injection, schedule: Q01DX001 (ip), vehicle: carboxymethylcellulose (CMC) 102 % of control | dose: 100.0 mg/kg/injection, schedule: Q01DX001 (ip), vehicle: carboxymethylcellulose (CMC) 100 % of control | dose: 200.0 mg/kg/injection, schedule: Q01DX001 (ip), vehicle: carboxymethylcellulose (CMC) 100 % of control | dose: 400.0 mg/kg/injection, schedule: Q01DX001 (ip), vehicle: carboxymethylcellulose (CMC) 100 % of control

O=C1OCC(Cl)=C1Cl
inactive: dose: 6.25 mg/kg/injection, schedule: Q04DX003 (ip), vehicle: saline 101 % of control | dose: 12.5 mg/kg/injection, schedule: Q04DX003 (ip), vehicle: saline 101 % of control | dose: 25.0 mg/kg/injection, schedule: Q04DX003 (ip), vehicle: saline 103 % of control
